These results are taken from patent US11464783B2, “Heterocyclic compounds” (Aligos Therapeutics, Inc., priority 2019, dated 2022).

In this assay the test system is HBV. Kind of assay: HBV-DNA Antiviral Assay Using HepG2.117 Cells. The class given is cell-based. The settings on record: intracellular HBV DNA by qPCR, day 4. As to the method: The following assay procedure describes the HBV antiviral assay, using HepG2.117 cells, which carry a stably integrated genotype D HBV genome under the control of a Tet-off promoter, and intracellular HBV DNA quantification as endpoint. Cell viability is assessed in parallel by measuring the intracellular ATP content using ATPlite (Perkin Elmer).
On day 0, HepG2.117 cells (which are maintained in routine cell culture with doxycycline present in the medium at a final concentration of 1 μg/mL) were seeded in 96-well plates (white with clear bottom) at a density of 2.0×10^4 cells/well (0.1 mL/well) in medium without doxycycline to induce pgRNA transcription and subsequent formation of HBV particles. The cells were incubated at 37° C. and 5% CO2.
On day 1, medium was removed from each well, the test articles were diluted in culture medium without doxcycyline and 100 μL was added to cell culture wells (9 concentrations, 4-fold dilution). For each plate, 6 untreated (merely DMSO) wells were included. The final concentration of DMSO in the culture medium was 2%. Each plate was prepared in duplicate (one for HBV DNA extraction, one for ATPlite measurement). The cells were incubated at 37° C. and 5% CO2 for 3 days.
On day 4, cell viability was assessed using ATPlite and cell lysates were prepared for HBV DNA extraction and subsequent quantification by qPCR.
Medium was removed from each well and 100 μL of 0.33% NP-40 in H2O was added to each well. Plates were sealed, incubated at 4° C. for 5 mins, vortexed extensively and centrifuged briefly. Next, 35 μL of lysate was added to 65 μL QuickExtract DNA Extraction Solution (Epicentre) in a PCR plate for each well. PCR plate was incubated at 65° C. for 6 mins, 98° C. for 2 mins and finally cooled to 4° C. HBV DNA was then quantified by qPCR with HBV-specific primers and probes as specified in Table 2 using the Bio-Rad SSOAdvanced Universal Probes Supermix on a CFX96 machine (Bio-Rad). The PCR cycle program consisted of 95° C. for 3 mins, followed by 40 cycles at 95° C. for 10 sec and 60° C. for 30 sec.
A DNA standard was prepared by dilution of an IDT gBlock corresponding to the amplicon with concentrations ranging from 10^2 to 10^8 copies/input (i.e. per 4 μL) and used to generate a standard curve by plotting Cq values vs. HBV DNA standard concentration. The quantity of HBV DNA in each sample was determined by interpolating from the standard curve.
Cell viability was calculated as follows: % Cell viability=(luminescence value of test sample)/(average luminescence value of 2% DMSO control)×100%. HBV DNA inhibition was calculated as follows: 100−(HBV DNA copy number of test sample)/(average HBV DNA copy number of 2% DMSO control)×100%. No normalization to entecavir was required due to the excellent dynamic window of this assay. The CC50, EC so and EC90 values were determined by dose-response curves fitted by GraphPad Prism using “log (agonist) vs. response—Variable slope”.
A general note: In qPCR the cycle at which signal appears reflects the starting amount.

Setting [1] is: Hepatitis B virus, HepG2.117, 96 h.

A value given as a limit tells only on which side of the number the result lay.

What is called EC50 is the concentration that produces a half-maximal response. Low values mean greater potency, high ones weaker potency. In turn, `C[C@@H]1CS(=O)(=O)[C@H](c2cccs2)CN1C(=O)c1ccc(Br)c(Cl)c1` [Compound 26, (4-bromo-3-chloro-phenyl)-[(2S,5R)-5-methyl-1,1-dioxo-2-(2-thienyl)-1,4-thiazinan-4-yl]methanone] returned an EC50 under setting [1] of 500 to 5000 nM. Still for that read-out and setting: as for `O=C(c1ccc(Br)c(Cl)c1)N1CCS(=O)(=O)C(c2nccs2)C1` (stereo not drawn) [Compound 27, (4-bromo-3-chloro-phenyl)-(1,1-dioxo-2-thiazol-2-yl-1,4-thiazinan-4-yl)methanone], the figure is 100 to 500 nM; as for `N#Cc1cc(C(=O)N2CCS(=O)(=O)[C@@](F)(c3ncc(Cc4ccccc4)s3)C2)ccc1Br` [Compound 40b], not above 100 nM. Still for that read-out and setting: as for `C[C@H](c1ccccc1)c1cnc([C@]2(F)CN(C(=O)c3ccc(Br)c(Cl)c3)CCS2(=O)=O)s1` [Compound 41c], the figure is 500 to 5000 nM. In turn, `O=C(Nc1ccc(F)c(Cl)c1)N1CCS(=O)(=O)C(c2ccccc2)C1` (single isomer, unassigned) [Compound 18b, N-(3-chloro-4-fluoro-phenyl)-1, l-dioxo-2-phenyl-1,4-thiazinane-4-carboxamide] showed an EC50 of more than 5000 nM.

In turn, `O=C(c1ccc(Br)c(Cl)c1)N1CCS(=O)(=O)C(c2ccccc2)C1` (single isomer, unassigned) [Compound 19b, (4-bromo-3-chloro-phenyl)-(1,1-dioxo-2-phenyl-1,4-thiazinan-4-yl)methanone] yielded an EC50 of 500 to 5000 nM.

As to `C[C@@H]1CS(=O)(=O)[C@](F)(c2ncc(Cc3ccccc3)s2)CN1C(=O)c1ccc(Br)c(Cl)c1` (stereo in doubt) [Compound 47a, (4-bromo-3-chloro-phenyl)-[(rac-2S,5R)-2-(5-benzylthiazol-2-yl)-2-fluoro-5-methyl-1,1-dioxo-1,4-thiazinan-4-yl]methanone], the EC50 was more than 5000 nM.

Take `O=C(c1ccc(Br)c(Cl)c1)N1CCS(=O)(=O)C(c2nnco2)C1` (stereo not drawn) [Compound 28, (4-bromo-3-chloro-phenyl)-[2-(1,3,4-oxadiazol-2-yl)-1,1-dioxo-1,4-thiazinan-4-yl]methanone]: the EC50 under setting [1] is 500 to 5000 nM. Same read-out and setting: to `N#Cc1cc(C(=O)N2CCS(=O)(=O)[C@@](F)(c3ncc(Cc4ccccc4-c4ncccn4)s3)C2)ccc1Br` [Compound 45a] belongs not above 100 nM. Still for that read-out and setting: as for `O=C(c1ccc(Br)c(Cl)c1)N1CCS(=O)(=O)[C@](F)(c2ncc(Cc3ccccc3)s2)C1` [Compound 37a, (4-bromo-3-chloro-phenyl)-[(2S)-2-(5-benzylthiazol-2-yl)-2-fluoro-1,1-dioxo-1,4-thiazinan-4-yl]methanone], the figure is not above 100 nM; as for `C[C@@H]1CS(=O)(=O)[C@@H](c2cccs2)CN1C(=O)c1ccc(Br)c(Cl)c1` [Compound 25, (4-bromo-3-chloro-phenyl)-[(2R,5R)-5-methyl-1,1-dioxo-2-(2-thienyl)-1,4-thiazinan-4-yl]methanone], 500 to 5000 nM. Same read-out and setting: as for `O=C(Nc1ccccc1)C1CN(C(=O)c2ccc(Br)c(Cl)c2)CCS1(=O)=O` (stereo not drawn) [Compound 2, 4-(4-bromo-3-chlorobenzoyl)-N-phenylthiomorpholine-2-carboxamide 1,1-dioxide], the figure is 500 to 5000 nM.

With `C[C@H](c1ccccc1)c1cnc([C@@]2(F)CN(C(=O)c3ccc(Br)c(Cl)c3)CCS2(=O)=O)s1` [Compound 41a], the EC50 under setting [1] is not above 100 nM.

Take `Cc1cc(Cl)ccc1C(=O)N1CCS(=O)(=O)C(c2cccs2)C1` (single isomer, unassigned) [Compound 12b, (4-chloro-2-methyl-phenyl)-[1,1-dioxo-2-(2-thienyl)-1,4-thiazinan-4-yl]methanone]: the EC50 is 500 to 5000 nM. Same read-out and setting: as for `C[C@@H](c1cnc([C@@]2(F)CN(C(=O)c3ccc(Br)c(Cl)c3)CCS2(=O)=O)s1)c1ccccc1F` (racemic) [Compound 42a, (rac-2R)-4-(4-bromo-3-chlorobenzoyl)-2-fluoro-2-[5-[(rac-1R)-1-(2-fluorophenyl)ethyl]-1,3-thiazol-2-yl]-1λ^6-thiomorpholine-1,1-dione], the figure is not above 100 nM. The compound `O=C(c1ccc(Br)c(Cl)c1)N1CCS(=O)(=O)[C@@](F)(C(=O)NCc2ccccc2)C1` [Compound 35b] had an EC50 under setting [1] of 500 to 5000 nM.

Regarding `C[C@H]1CS(=O)(=O)[C@@](F)(c2ncc(Cc3ccccc3)s2)CN1C(=O)c1ccc(Br)c(Cl)c1` (stereo in doubt) [Compound 48b, (4-bromo-3-chloro-phenyl)-[(rac-2R,5S)-2-(5-benzylthiazol-2-yl)-2-fluoro-5-methyl-1,1-dioxo-1,4-thiazinan-4-yl]methanone], the EC50 lay in the range of 100 to 500 nM.

In turn, `CC1(c2ncc(Cc3ccccc3)s2)CN(C(=O)c2ccc(Br)c(Cl)c2)CCS1(=O)=O` (racemic) [Compound 36b, (4-bromo-3-chloro-phenyl)-[rac-(2R)-2-(5-benzylthiazol-2-yl)-2-methyl-1,1-dioxo-1,4-thiazinan-4-yl]methanone] yielded a 50% effective concentration (EC50) of 100 to 500 nM. For `O=C(c1ccc(Cl)c(Cl)c1)N1CCS(=O)(=O)C(c2nccs2)C1` (stereo not drawn) [Compound 32], under setting [1], the EC50 is 500 to 5000 nM. `C[C@H](c1cnc(C2(F)CN(C(=O)c3ccc(Br)c(Cl)c3)CCS2(=O)=O)s1)c1ccccc1F` (mixture of isomers) [Compound 42d, (rac-2S)-4-(4-bromo-3-chlorobenzoyl)-2-fluoro-2-[5-[(rac-1S)-1-(2-fluorophenyl)ethyl]-1,3-thiazol-2-yl]-1λ^6-thiomorpholine-1,1-dione] returned an EC50 of 500 to 5000 nM. `COc1ccc(Cc2cnc([C@]3(F)CN(C(=O)c4ccc(Br)c(Cl)c4)CCS3(=O)=O)s2)c(OC)c1` [Compound 49a] came in with a concentration giving a half-maximal response (EC50) under setting [1] of 500 to 5000 nM. Still for that read-out and setting: as for `C[C@H](c1cnc([C@]2(F)CN(C(=O)c3ccc(Br)c(C#N)c3)CCS2(=O)=O)s1)c1ccccc1F` [Compound 43d], the figure is 500 to 5000 nM. Same read-out and setting: as for `C[C@H]1CS(=O)(=O)[C@@H](c2cccs2)CN1C(=O)Nc1ccc(F)c(Cl)c1` [Compound 21, (2R,5S)—N-(3-chloro-4-fluoro-phenyl)-5-methyl-1,1-dioxo-2-(2-thienyl)-1,4-thiazinane-4-carboxamide], the figure is 100 to 500 nM. Under setting [1], `O=C(NCCc1ccccc1)C1CN(C(=O)c2ccc(Br)c(Cl)c2)CCS1(=O)=O` (stereo not drawn) [Compound 4, 4-(4-bromo-3-chlorobenzoyl)-N-phenethylthiomorpholine-2-carboxamide 1,1-dioxide] returned an EC50 of 500 to 5000 nM. Regarding `O=C(c1ccc(Cl)c(F)c1)N1CCS(=O)(=O)C(c2cccs2)C1` (single isomer, unassigned) [Compound 7a, (4-chloro-3-fluoro-phenyl)-[1,1-dioxo-2-(2-thienyl)-1,4-thiazinan-4-yl]methanone], the EC50 lay within 100 to 500 nM. Under setting [1], `Cc1cnc(C2CN(C(=O)c3ccc(Br)c(Cl)c3)CCS2(=O)=O)s1` (stereo not drawn) [Compound 29, (4-bromo-3-chloro-phenyl)-[2-(5-methylthiazol-2-yl)-1,1-dioxo-1,4-thiazinan-4-yl]methanone] had an EC50 not above 100 nM.

For `O=C(c1ccc(Br)c(Cl)c1)N1CCS(=O)(=O)C(F)(c2ncc(Cc3ccccc3-c3ncccn3)s2)C1` (racemic) [Compound 44a, (rac-2R)-4-(4-bromo-3-chlorobenzoyl)-2-fluoro-2-(5-[[2-(pyrimidin-2-yl)phenyl]methyl]-1,3-thiazol-2-yl)-1λ^6-thiomorpholine-1,1-dione], the half-maximal effective concentration (EC50) was not above 100 nM. Compound `O=C(c1ccc(Cl)c(F)c1)N1CCS(=O)(=O)C(c2cccs2)C1` (single isomer, unassigned) [Compound 7b, (4-chloro-3-fluoro-phenyl)-[1,1-dioxo-2-(2-thienyl)-1,4-thiazinan-4-yl]methanone] had an EC50 of 500 to 5000 nM. Same read-out and setting: to `O=C(c1ccc(Br)c(Cl)c1)N1CCS(=O)(=O)C(F)(c2ncc(Cc3ccccc3-c3ncccn3)s2)C1` (racemic) [Compound 44b, (rac-2S)-4-(4-bromo-3-chlorobenzoyl)-2-fluoro-2-(5-[[2-(pyrimidin-2-yl)phenyl]methyl]-1,3-thiazol-2-yl)-1λ^6-thiomorpholine-1,1-dione] belongs 500 to 5000 nM. Regarding `O=C(c1ccc(Br)c(Cl)c1)N1CCS(=O)(=O)[C@](F)(C(=O)NCc2ccccc2)C1` [Compound 35a], the EC50 under setting [1] was not above 100 nM.
